Reference: US20250387353A1 (SpringWorks Therapeutics, Inc., priority 2024, published 2025)

Experiments:
[1] = Pharmacokinetic parameters and characteristics of mirdametinib (Table A); format: in vivo, human; conditions: for Tmax [median (range)]: post dose
Description: (§1) Study treatment was administered orally at a twice daily (BID) dose specified in the table below. Dosing was on a 28-day Cycle (4-week course) with a 3 week on/1 week off schedule. The treatment period will last for up to 24 Cycles followed by a 30-day Safety Follow-Up period.

[2] = test system: NF1-associated plexiform neurofibromas (PN); experiment: Phase 2b trial in adult and pediatric patients with NF1-associated inoperable plexiform neurofibromas; response by BICR volumetric MRI per REiNS criteria; format: in vivo, human; conditions: for DoR ≥12 months: Kaplan-Meier based approach, data cut-off September 2023
Description: Participants were screened (assessed for eligibility as described below). […] The median age was 34.5 years (range 18 to 69 years); 85% were white and 64% were female. […] The most commonly reported morbidities were pain (90%) and disfigurement or major deformity (52%).
The median age was 10 years (range 2 to 17 years); 66% were white and 54% were female. […] The most commonly reported morbidities were pain (70%) and disfigurement or major deformity (50%).
as §1
A partial response was defined as PN decrease≥20% compared to baseline using centrally read MRI volumetric analysis.
The major efficacy outcome measure was confirmed objective response rate (ORR), defined as the percentage of patients with complete response (disappearance of the target PN) or confirmed partial response (≥20% reduction in PN volume confirmed at a subsequent tumor assessment within 2-6 months during the 24-cycle treatment phase). Responses were assessed by blinded independent central review (BICR) using volumetric magnetic resonance imaging (MRI) analysis per Response Evaluation in Neurofibromatosis and Schwannomatosis (REINS) criteria. A secondary efficacy objective was to determine the duration of response for patients who achieved a confirmed objective response.

[3] = Pediatric patients (2 to <18 years)

For `O=C(NOC[C@H](O)CO)c1ccc(F)c(F)c1Nc1ccc(I)cc1F` (single isomer, unassigned) [mirdametinib], the “Steady-state exposure AUClast [geometric mean (geometric % CV)]” value ([1]; Adult patients (≥18 years)) was “Adult patients (≥18 years): 431 (43%) ng · h/mL”, the “Steady-state exposure Cmax [geometric mean (geometric % CV)]” value ([1]; Adult patients (≥18 years)) was “Adult patients (≥18 years): 188 (52%) ng/mL” and the “Tmax [median (range)]” value ([1]; Capsule) was “Capsule: 1.08 (0.00-4.17) hours post dose”. For the same molecule, the “Steady-state exposure AUClast [geometric mean (geometric % CV)]” value [1, 3] was “Pediatric patients (2 to <18 years): 459 (46%) ng · h/mL”, the “Steady-state exposure Cmax [geometric mean (geometric % CV)]” value [1, 3] was “Pediatric patients (2 to <18 years): 191 (62%) ng/mL” and the “Tmax [median (range)]” value ([1]; Tablet) was “Tablet: 0.83 (0.42-3.02) hours post dose”. For the same molecule, the “DoR ≥12 months” value ([2]; Adult responders) was 18 (75%) n (%), the “DoR ≥12 months” value ([2]; Pediatric responders) was 22 (76%) n (%) and the “Median time to onset of response” value ([2]; adult cohort, range 4.0 to 19.0 months) was 7.8 months. The “Median time to onset of response” value ([2]; pediatric cohort, range 4.1 to 18.8 months) was 7.9 months.
